Several values for one entry are separate records, joined by “and”; a condition that tells them apart may be missing. Equal values may be shown once.
Columns and labels:
[1] = tested on: tumors; details: 24 hours after dye administration by injection; prior art; cited from earlier work
[2] = tested on: human colorectal tumors; assay: Luminal (rectal, minicolonoscope) administration of dye to orthotopic mice; fluorescence of tumor and surrounding colon tissue by fluorescent camera, with histopathology; assay type: in vivo, mouse; details: for fluorescent labeling of tumor exposed to the colon lumen: tumor confirmed by histopathology
Method: Orthotopic mice with human colorectal tumors in their colons were used for […] administration of the IR-783 derivative—IR-783-S-PH-COOH. 4 μg of the IR-783-S-PH-COOH dissolved in 200 μl PBS were introduced into the colon of the mouse via minicolonoscope inserted through the rectum. The IR-783-S-PH-COOH solution was incubated in the colon for 20 minutes and then washed out with 5 ml PBS inserted through the rectum. Four hours later, mice were sacrificed and the fluorescence of the tumor and the surrounding colon tissue was measured by a fluorescent camera setup. Histopathological examination was performed on paraffin fixed colonic tissue specimens.
Orthotopic mice with human colorectal tumors in their colons were used for luminal administration of IR-783. 4 μg of IR-783 dissolved in 200 μl PBS were introduced into the colon of the mouse via a minicolonoscope inserted through the rectum. The IR-783 solution was incubated in the colon for 20 minutes and then washed out with 5 ml of PBS. 4 h later, the mice were sacrificed and the fluorescence of the tumor and the surrounding colon was measured by a fluorescent camera setup. Histopathological examination was performed on paraffin fixed colonic tissue specimens.

[3] = Gastric gavage of dye to mice; organ fluorescence (liver, spleen, heart, lungs, kidneys, brain) by fluorescent camera; assay type: in vivo; details: 5 hours later
Method: 4 μg of IR-783 dissolved in 200 μl PBS were introduced into mice stomach by gastric gavage. Five hours later, the mice were sacrificed and liver, spleen, heart, lungs, kidneys and brain were collected and measured for fluorescence by a fluorescent camera setup. […] Grey levels of the organs are indicated by the numbers on the fluorescent pictures next to the imaged organs, e.g., grey level in the liver was 4000 in two mice and 2500 in a third mouse, and grey levels in the kidneys were 3500, 200 and 1200, respectively.

[4] = 4 μg in 200 μl PBS into colon, 20 min incubation, 4 h later
[5] = 4 μg in 200 μl PBS by gastric gavage, individual mice

Compound	dye concentration in tumors compared to normal body tissue [1]	fluorescent labeling of tumor exposed to the colon lumen [2, 4]	fluorescent labeling of tumors developed below the murine mucosal layer (not exposed to colon lumen) ([2]; 4 μg into colon, 20 min incubation, 4 h later, FIG. 6B)	organs in which fluorescence was detected ([3]; 4 μg by gastric gavage, liver, spleen, heart, lungs, kidneys, brain examined)	grey level in the liver [3, 5]	grey levels in the kidneys [3, 5]	tumor to background ratio ([2]; 4 μg in 200 μl PBS into colon, 20 min incubation, washed out, measured 4 h later, 1 second exposure, histopathologically confirmed tumor)	fluorescent labeling of non-cancerous lymphatic tissue region ([2]; 4 μg into colon, 4 h later, suspected region with no tumor cells)
CC1(C)C(=CC=C2CCCC(C=CC3=[N+](CCCCS(=O)(=O)[O-])c4ccccc4C3(C)C)=C2Cl)N(CCCCS(=O)(=O)[O-])c2ccccc21.[Na+] [IR-783]	much higher in tumors	intensely labeled	not labeled	detected in the liver and kidneys	4000 and 2500	3500 and 200 and 1200		
IR-783-S-PH-COOH		intensely labeled					60	not labeled

Reference: patent US20150223675A1, “LUMINAL ADMINISTRATION OF TAG MOLECULES FOR DIAGNOSTIC APPLICATIONS” (GIVEN IMAGING LTD., priority 2012, published 2015)
